Source: ChEMBL document CHEMBL3885861, “Open TG-GATES”

Species: Rattus norvegicus
Experiment: Open TG-GATES - Regimen: Single
Format: toxicity, organism-based, Sprague-Dawley
Parameters: regimen Single, gender Male, age 6 weeks
Settings: in vivo, po, route gavage; for TG / TP / gamma-GTP / A/G / ALP / ALT / AST / BUN / CRE / Ca / Cl / DBIL / GLC / IP / K / LDH / Na / PL / RALB / TBIL / TC: tissue Plasma; for APTT / Bas / Eos / Fbg / Hb / Ht / Lym / MCH / MCHC / MCV / Mono / Neu / PT / Plat / RBC / Ret / WBC: tissue Blood; for KIDNEY_L / KIDNEY_R / KIDNEY_TOTAL: tissue Kidney; for LIVER: tissue Liver
[1] = 15 mg/kg, 3 h, dose level Middle
[2] = 15 mg/kg, 6 h, dose level Middle

## COc1ccc2c(c1)c(CC(=O)O)c(C)n2C(=O)c1ccc(Cl)cc1 [INDOMETHACIN]
5 mg/kg, 3 h, dose level Low
  TG: 59.6 mg/dL
  TP: 5.4 g/dL
  gamma-GTP: 1 IU/L
5 mg/kg, 6 h, dose level High
  TERMINAL_BW: 202.4 g
  APTT: 16.9 s
  Bas: 0%
  Eos: 0.8%
  Fbg: 205.2 mg/dL
  Hb: 12.7 g/dL
  Ht: 38.6%
  Lym: 69.4%
  MCH: 21.3 pg
  MCHC: 32.8%
  MCV: 64.9 fL
  Mono: 13%
  Neu: 16.8%
  PT: 12.8 s
  Plat: 112.7 x10_4/uL
  RBC: 594.6 x10_4/ul
  Ret: 10.3%
  WBC: 87.2 x10_2/uL
  KIDNEY_L: 0.9 g
  KIDNEY_R: 0.9 g
  KIDNEY_TOTAL: 1.9 g
  LIVER: 9 g
  A/G: 1.9
  ALP: 908.6 IU/L
  ALT: 35.6 IU/L
  AST: 69 IU/L
  BUN: 13.6 mg/dL
  CRE: 0.5 mg/dL
  Ca: 10.2 mg/dL
  Cl: 108.2 meq/L
  DBIL: 0.014 mg/dL
  GLC: 194.8 mg/dL
  IP: 9.4 mg/dL
  K: 5.1 meq/L
  LDH: 186.4 IU/L
  Na: 137.4 meq/L
  PL: 120 mg/dL
  RALB: 3.8 g/dL
  TBIL: 0.3 mg/dL
  TC: 68.4 mg/dL
  TG: 48 mg/dL
  TP: 5.8 g/dL
  gamma-GTP: 1.2 IU/L
5 mg/kg, 6 h, dose level Low
  TERMINAL_BW: 222.1 g
  APTT: 18.4 s
  Eos: 0.4%
  Fbg: 230 mg/dL
  Hb: 13.9 g/dL
  Ht: 38%
  Lym: 79.6%
  MCH: 22.6 pg
  MCHC: 36.4%
  MCV: 62 fL
  Mono: 2.8%
  Neu: 15.4%
  PT: 12.4 s
  Plat: 118.2 x10_4/uL
  RBC: 613.2 x10_4/ul
  Ret: 8%
  WBC: 100.8 x10_2/uL
  KIDNEY_L: 1 g
  KIDNEY_R: 1 g
  LIVER: 9.1 g
  A/G: 1.5
  ALP: 938.4 IU/L
  ALT: 36.2 IU/L
  AST: 75.8 IU/L
  BUN: 12 mg/dL
  CRE: 0.4 mg/dL
  Ca: 10.4 mg/dL
  Cl: 103.2 meq/L
  DBIL: 0.076 mg/dL
  GLC: 197.2 mg/dL
  IP: 9.2 mg/dL
  K: 4 meq/L
  LDH: 231 IU/L
  Na: 140.8 meq/L
  PL: 135.2 mg/dL
  RALB: 3.3 g/dL
  TBIL: 0.1 mg/dL
  TC: 77.4 mg/dL
  TG: 62.8 mg/dL
  TP: 5.4 g/dL
  gamma-GTP: 0.8 IU/L
5 mg/kg, 9 h, dose level High
  TERMINAL_BW: 198.4 g
  APTT: 16.9 s
  Bas: 0%
  Eos: 0.6%
  Fbg: 213.6 mg/dL
  Hb: 13.2 g/dL
  Ht: 39.6%
  Lym: 84.2%
  MCH: 21.6 pg
  MCHC: 33.3%
  MCV: 65 fL
  Mono: 7.8%
  Neu: 7.4%
  PT: 12.6 s
  Plat: 102.6 x10_4/uL
  RBC: 609.4 x10_4/ul
  Ret: 9.6%
  WBC: 107 x10_2/uL
  KIDNEY_L: 0.9 g
  KIDNEY_R: 0.9 g
  KIDNEY_TOTAL: 1.9 g
  LIVER: 8.1 g
  A/G: 2.5
  ALP: 961.6 IU/L
  ALT: 34.6 IU/L
  AST: 66 IU/L
  BUN: 12.6 mg/dL
  CRE: 0.5 mg/dL
  Ca: 10.1 mg/dL
  Cl: 105.6 meq/L
  DBIL: 0.042 mg/dL
  GLC: 183.4 mg/dL
  IP: 9.8 mg/dL
  K: 5.3 meq/L
  LDH: 192.8 IU/L
  Na: 137.2 meq/L
  PL: 117 mg/dL
  RALB: 3.9 g/dL
  TBIL: 0.5 mg/dL
  TC: 65.6 mg/dL
  TG: 34.4 mg/dL
  TP: 5.4 g/dL
  gamma-GTP: 2.6 IU/L
5 mg/kg, 9 h, dose level Low
  TERMINAL_BW: 221 g
  APTT: 18.2 s
  Eos: 0.4%
  Fbg: 228.6 mg/dL
  Hb: 13.7 g/dL
  Ht: 37.7%
  Lym: 76.4%
  MCH: 22.2 pg
  MCHC: 36.4%
  MCV: 60.8 fL
  Mono: 3%
  Neu: 18%
  PT: 12.2 s
  Plat: 126.8 x10_4/uL
  RBC: 620.4 x10_4/ul
  Ret: 7.9%
  WBC: 86 x10_2/uL
  KIDNEY_R: 1 g
  LIVER: 8.6 g
  A/G: 1.7
  ALP: 793.6 IU/L
  AST: 72.6 IU/L
  BUN: 9.8 mg/dL
  CRE: 0.3 mg/dL
  Ca: 10.3 mg/dL
  Cl: 104 meq/L
  DBIL: 0.076 mg/dL
  GLC: 197.6 mg/dL
  K: 3.8 meq/L
  LDH: 194 IU/L
  Na: 141.4 meq/L
  PL: 137 mg/dL
  RALB: 3.3 g/dL
  TBIL: 0.1 mg/dL
  TC: 76.2 mg/dL
  TG: 31.8 mg/dL
  gamma-GTP: 1.2 IU/L
5 mg/kg, 24 h, dose level High
  TERMINAL_BW: 211.4 g
  APTT: 17.1 s
  Bas: 0%
  Eos: 0.8%
  Fbg: 232.2 mg/dL
  Hb: 13 g/dL
  Ht: 39.2%
  Lym: 78%
  MCH: 21.9 pg
  MCHC: 33.2%
  MCV: 65.9 fL
  Mono: 8.2%
  Neu: 13.4%
  PT: 12.2 s
  Plat: 100.7 x10_4/uL
  RBC: 595.4 x10_4/ul
  Ret: 9.8%
  WBC: 116.2 x10_2/uL
  KIDNEY_L: 1 g
  KIDNEY_R: 1 g
  KIDNEY_TOTAL: 1.9 g
  LIVER: 9.9 g
  A/G: 2
  ALP: 879 IU/L
  ALT: 40.4 IU/L
  AST: 70.2 IU/L
  BUN: 15.4 mg/dL
  CRE: 0.5 mg/dL
  Ca: 10.4 mg/dL
  Cl: 106.2 meq/L
  DBIL: 0.006 mg/dL
  GLC: 197.2 mg/dL
  IP: 8.4 mg/dL
  K: 4.9 meq/L
  LDH: 146 IU/L
  Na: 138.8 meq/L
  PL: 133.4 mg/dL
  RALB: 3.7 g/dL
  TBIL: 0.3 mg/dL
  TC: 77.4 mg/dL
  TG: 65.2 mg/dL
  TP: 5.6 g/dL
  gamma-GTP: 1.4 IU/L
5 mg/kg, 24 h, dose level Low
  TERMINAL_BW: 236.2 g
  APTT: 18.6 s
  Bas: 0.8%
  Fbg: 249.8 mg/dL
  Hb: 13.2 g/dL
  Ht: 38.2%
  Lym: 65.8%
  MCH: 21.3 pg
  MCHC: 34.5%
  MCV: 61.7 fL
  Mono: 3.2%
  Neu: 29.2%
  PT: 11.6 s
  Plat: 117.7 x10_4/uL
  RBC: 619.8 x10_4/ul
  Ret: 7.2%
  WBC: 111.3 x10_2/uL
  KIDNEY_TOTAL: 2.1 g
  LIVER: 11.3 g
  A/G: 1.5
  ALP: 830.8 IU/L
  ALT: 35.8 IU/L
  AST: 70 IU/L
  BUN: 13.2 mg/dL
  CRE: 0.4 mg/dL
  Ca: 10.7 mg/dL
  Cl: 103.2 meq/L
  DBIL: 0.06 mg/dL
  GLC: 189.4 mg/dL
  IP: 7.6 mg/dL
  K: 3.9 meq/L
  LDH: 234.2 IU/L
  Na: 141.6 meq/L
  PL: 144.6 mg/dL
  RALB: 3.3 g/dL
  TBIL: 0.1 mg/dL
  TC: 73.6 mg/dL
  TG: 82.8 mg/dL
[1]
  TERMINAL_BW: 223.8 g
  APTT: 19.8 s
  Bas: 0.6%
  Eos: 0.4%
  Fbg: 232.4 mg/dL
  Hb: 13.8 g/dL
  Ht: 37.8%
  Lym: 74.8%
  MCH: 22.8 pg
  MCHC: 36.5%
  MCV: 62.5 fL
  Mono: 3.4%
  Neu: 19.6%
  PT: 11.6 s
  Plat: 132.9 x10_4/uL
  RBC: 605.2 x10_4/ul
  Ret: 8.5%
  WBC: 104.8 x10_2/uL
  KIDNEY_L: 0.9 g
  KIDNEY_R: 0.9 g
  KIDNEY_TOTAL: 1.9 g
  LIVER: 10.3 g
  A/G: 1.5
  ALP: 827 IU/L
  ALT: 36.2 IU/L
  AST: 73.6 IU/L
  BUN: 13 mg/dL
  CRE: 0.4 mg/dL
  Ca: 10.8 mg/dL
  Cl: 102.6 meq/L
  DBIL: 0.072 mg/dL
  GLC: 209.2 mg/dL
  IP: 9.8 mg/dL
  K: 4.1 meq/L
  LDH: 219.2 IU/L
  Na: 141.2 meq/L
  PL: 151.6 mg/dL
  RALB: 3.3 g/dL
  TBIL: 0.1 mg/dL
  TC: 84.8 mg/dL
  TG: 64.8 mg/dL
  TP: 5.5 g/dL
  gamma-GTP: 1 IU/L
[2]
  TERMINAL_BW: 220.7 g
  APTT: 19 s
  Bas: 0%
  Eos: 0.6%
  Fbg: 224 mg/dL
